# Test results as given in patent publication US12565501B2, “Muscarinic acetylcholine M1 receptor antagonists” (Contineum Therapeutics, Inc., priority 2019, dated 2026).
# Molecular target: T1, human M1 receptor (Homo sapiens, UniProt P11229)
# T1 sequence (P11229 1-460): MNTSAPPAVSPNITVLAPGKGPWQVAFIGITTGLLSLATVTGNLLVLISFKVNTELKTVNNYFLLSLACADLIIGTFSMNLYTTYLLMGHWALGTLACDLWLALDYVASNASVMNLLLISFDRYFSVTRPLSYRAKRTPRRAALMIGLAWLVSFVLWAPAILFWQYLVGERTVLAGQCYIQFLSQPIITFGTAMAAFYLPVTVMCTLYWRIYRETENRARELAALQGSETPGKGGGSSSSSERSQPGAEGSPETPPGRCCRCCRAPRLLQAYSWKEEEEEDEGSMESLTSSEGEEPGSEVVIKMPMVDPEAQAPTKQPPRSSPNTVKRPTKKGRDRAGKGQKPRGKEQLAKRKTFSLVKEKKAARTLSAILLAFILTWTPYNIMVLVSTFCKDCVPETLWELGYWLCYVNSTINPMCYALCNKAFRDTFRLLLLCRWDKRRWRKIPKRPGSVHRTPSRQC
# Assay: In vitro functional assay of muscarinic acetylcholine receptor activity (aequorin calcium flux, reversal of EC80 acetylcholine response)
# Assay type: cell-based
# Details: CHO-K1 cells stably expressing human M1 receptor with aequorin; acetylcholine at EC80; calcium flux (luminescence); read-out: M1 IC50
# How it was run: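 CHO-K1 cells expressing human M1 and aequorin, loaded with 5 μM coelenterazine for 4 h, preincubated with compound 30 min at room temperature, then challenged with EC80 acetylcholine.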
row,SMILES,IC50 [nM]
1,"COc1ncccc1C(F)(F)/C=C/C(=O)N1C[C@H]2CC[C@@H](C1)N2c1ccc(C#N)cn1 [Example 141, 6-(3-((E)-4,4-difluoro-4-(2-methoxypyridin-3-yl)but-2-enoyl)-3,8-diazabicyclo[3.2.1]octan-8-yl)nicotinonitrile]",< 10
2,"CC(NCCC(=O)N1CC2CCC(C1)N2c1ccc(C#N)cn1)c1ccc(F)cc1 (stereo in doubt) [Example 7, 6-(3-(3-(((S)-1-(4-fluorophenyl)ethyl)amino)propanoyl)-3,8-diazabicyclo[3.2.1]octan-8-yl)nicotinonitrile]",1000 to 10000
3,"COc1cnc2cccc(C(C)NCCC(=O)N3C[C@H]4CC[C@@H](C3)N4c3ccc(C#N)cn3)c2c1 (mixture of isomers) [Example 50, 6-(3-(3-((1-(3-methoxyquinolin-5-yl)ethyl)amino)propanoyl)-3,8-diazabicyclo[3.2.1]octan-8-yl)nicotinonitrile]",< 10
4,"N#Cc1ccc(N2C3CCC2CN(C(=O)CCC(F)(F)c2cccc4ncccc24)C3)nc1 [Example 122, 6-(3-(4,4-difluoro-4-(quinolin-5-yl)butanoyl)-3,8-diazabicyclo[3.2.1]octan-8-yl)nicotinonitrile]",< 10
5,"N#Cc1ccc(N2C3CCC2CN(C(=O)COC2(c4cccc(F)c4)CCC2)C3)nc1 [Example 235, 6-(3-(2-(1-(3-fluorophenyl)cyclobutoxy)acetyl)-3,8-diazabicyclo[3.2.1]octan-8-yl)nicotinonitrile]",10 to 100
6,"CC(c1ccc(F)cc1)[S+]([O-])CCC(=O)N1CC2CCC(C1)N2c1ccc(C#N)cn1 (racemic) [Example 170, 6-(3-(3-((1-(4-fluorophenyl)ethyl)sulfinyl)propanoyl)-3,8-diazabicyclo[3.2.1]octan-8-yl) nicotinonitrile]",> 1000
7,"C[C@H](NCCC(=O)N1C[C@H]2CC[C@@H](C1)N2c1ccc(C#N)cn1)c1ccc(F)c(F)c1 [Example 8, 6-(3-(3-(((S)-1-(3,4-difluorophenyl)ethyl)amino)propanoyl)-3,8-diazabicyclo[3.2.1]octan-8-yl)nicotinonitrile]",100 to 1000
8,"N#Cc1ccc(N2C3CCC2CN(C(=O)CNC2(c4cccc(F)c4)CC2)C3)nc1 [Example 95, 6-(3-((1-(3-fluorophenyl)cyclopropyl)glycyl)-3,8-diazabicyclo[3.2.1]octan-8-yl)nicotinonitrile]",10 to 100
9,"COc1ccc(C2(OCC(=O)N3CC4CCC(C3)N4c3ccc(C#N)cn3)CC2)cc1F [Example 222, 6-(3-(2-(1-(3-fluoro-4-methoxyphenyl)cyclopropoxy)acetyl)-3,8-diazabicyclo[3.2.1]octan-8-yl)nicotinonitrile]",1000 to 10000
10,"N#Cc1cnc(N2[C@@H]3CC[C@H]2CN(C(=O)CCNC2(c4ccc(F)c(F)c4)CC2)C3)cn1 [Example 45, 5-(3-(3-((1-(3,4-difluorophenyl)cyclopropyl)amino)propanoyl)-3,8-diazabicyclo[3.2.1]octan-8-yl)pyrazine-2-carbonitrile]",10 to 100
11,"N#Cc1cc(N2C3CCC2CN(C(=O)COC2(c4ccncc4F)CCC2)C3)ccn1 [Example 282, 4-(3-(2-(1-(3-fluoropyridin-4-yl)cyclobutoxy)acetyl)-3,8-diazabicyclo[3.2.1]octan-8-yl)picolinonitrile]",10 to 100
12,"CC(c1ccccc1)S(=O)(=O)CC(=O)N1CC2CCC(C1)N2c1ccc(C#N)cn1 (racemic) [Example 172, 6-(3-(2-((1-phenylethyl)sulfonyl)acetyl)-3,8-diazabicyclo[3.2.1]octan-8-yl)nicotinonitrile]",> 1000
13,"N#Cc1ccc(N2C3CCC2CN(C(=O)CNC2CCc4ccccc42)C3)nc1 (racemic) [Example 89, 6-(3-((2,3-dihydro-1H-inden-1-yl)glycyl)-3,8-diazabicyclo[3.2.1]octan-8-yl)nicotinonitrile]",1000 to 10000
14,"N#Cc1ccc(N2[C@@H]3CC[C@H]2CN(C(=O)CCNC2(c4ccc(F)c(Br)c4)CC2)C3)nc1 [Example 11, 6-(3-(3-((1-(3-bromo-4-fluorophenyl)cyclopropyl)amino)propanoyl)-3,8-diazabicyclo[3.2.1]octan-8-yl)nicotinonitrile]",< 10
15,"N#Cc1ccc(N2C3CCC2CN(C(=O)COC2(c4ncc(F)cc4F)CCC2)C3)nc1 [Example 271, 6-(3-(2-(1-(3,5-difluoropyridin-2-yl)cyclobutoxy)acetyl)-3,8-diazabicyclo[3.2.1]octan-8-yl)nicotinonitrile]",100 to 1000
16,"CC1c2ccccc2CCN1CC(=O)N1CC2CCC(C1)N2c1ccc(C#N)cn1 (racemic) [Example 106, 6-(3-(2-(1-methyl-3,4-dihydroisoquinolin-2(1H)-yl)acetyl)-3,8-diazabicyclo[3.2.1]octan-8-yl)nicotinonitrile]",100 to 1000
17,"N#Cc1ccc(N2[C@@H]3COC[C@H]2CN(C(=O)CCNC2(c4ccc(F)c(F)c4)CC2)C3)nc1 [Example 39, 6-(7-(3-((1-(3,4-difluorophenyl)cyclopropyl)amino)propanoyl)-3-oxa-7,9-diazabicyclo[3.3.1]nonan-9-yl)nicotinonitrile]",100 to 1000
18,"N#Cc1ccc(N2C3CCC2CN(C(=O)COC(c2cccc4ncccc24)C(F)F)C3)nc1 (racemic) [Example 199, 6-(3-(2-(2,2-difluoro-1-(quinolin-5-yl)ethoxy)acetyl)-3,8-diazabicyclo[3.2.1]octan-8-yl)nicotinonitrile]",< 10
19,"N#Cc1ccc(N2C3CCC2CN(C(=O)CCNC(CO)c2ccc(F)cc2)C3)nc1 [Example 131, 6-((3-(3-(((S)1-(4-fluorophenyl)-2-hydroxyethyl)amino)propanoyl)-3,8-diazabicyclo[3.2.1]octan-8-yl)nicotinonitrile]",1000 to 10000
20,"C[C@@H](OCCC(=O)N1CC2CCC(C1)N2c1ccc(C#N)cn1)c1ccc(F)c(F)c1 [Example 306, 6-(3-(3-((R)-1-(3,4-difluorophenyl)ethoxy)propanoyl)-3,8-diazabicyclo[3.2.1]octan-8-yl)nicotinonitrile]",10 to 100
21,"N#Cc1ccc(N2C3CCC2CN(C(=O)COC2(c4cccnc4)CCC2)C3)nc1 [Example 245, 6-(3-(2-(1-(pyridin-3-yl)cyclobutoxy)acetyl)-3,8-diazabicyclo[3.2.1]octan-8-yl)nicotinonitrile]",100 to 1000
22,"COc1ccc(C#N)c(C2(OCC(=O)N3CC4CCC(C3)N4c3ccc(C#N)cn3)CC2)c1 [Example 293, 6-(3-(2-(1-(2-cyano-5-methoxyphenyl)cyclopropoxy)acetyl)-3,8-diazabicyclo[3.2.1]octan-8-yl)nicotinonitrile]",< 10
23,"N#Cc1ccc(N2C3CCC2CN(C(=O)COC2(c4cccc(C#N)c4F)CC2)C3)nc1 [Example 290, 6-(3-(2-(1-(3-cyano-2-fluorophenyl)cyclopropoxy)acetyl)-3,8-diazabicyclo[3.2.1]octan-8-yl)nicotinonitrile]",1000 to 10000
24,"C[C@H](NCCC(=O)N1C[C@H]2CC[C@@H](C1)N2c1ccc(C#N)cn1)c1ccc(F)cc1F [Example 9, 6-(3-(3-(((S)-1-(2,4-difluorophenyl)ethyl)amino)propanoyl)-3,8-diazabicyclo[3.2.1]octan-8-yl)nicotinonitrile]",100 to 1000
25,"C[C@@H](OCC(=O)N1C[C@H]2CC[C@@H](C1)N2c1ccc(C#N)cn1)c1ccccc1 [Example 178, 6-(3-(2-((R)-1-phenylethoxy)acetyl)-3,8-diazabicyclo[3.2.1]octan-8-yl)nicotinonitrile]",100 to 1000
